Source: patent US20030013660A1, “Dioxolane analogs for improved inter-cellular delivery” (Shire BioChem Inc., priority 2000, published 2003)

How the values were obtained:
[1] = tested on: H-460; experiment: 3H-TdR incorporation at 72 hr (24 hr drug exposure, wash, 48 hr); type: cell-based, Human
Procedure: (§1) Exposition of 24 hr to drug, wash, incubated for another 48 hr (total of 72 hr assay)
(§2) (3H-Thymidine Incorporation Assay)

[2] = tested on: MCF-7; experiment: as above; type: cell-based, Human
Procedure: as §1, §2

[3] = tested on: SF-268; experiment: as above; type: cell-based, Human; details: Homo sapiens, SF-268, read-out: IC50 in μM (3H-TdR incorporation at 72 hr) SF-268 24 h, SF-268 Human Central Nervous System Tumor; 24 h drug exposure, 72 hr assay
Procedure: as §1, §2

[4] = tested on: CEM/dCK-; experiment: as above; type: cell-based; details: for IC50: Homo sapiens, CCRF-CEM, read-out: IC50 in μM (3H-TdR incorporation at 72 hr) CEM/dCK- 24 h, CCRF-CEM deoxycytidine kinase-deficient, 24 h drug exposure, 72 hr assay
Procedure: as §1, §2

[5] = tested on: CCRF-CEM; experiment: as above; type: cell-based; details: Homo sapiens, CCRF-CEM, read-out: IC50 in μM (3H-TdR incorporation at 72 hr) CCRF-CEM 24 h, CCRF-CEM T-cell Leukemia, 72 hr assay
Procedure: as §1, §2

[6] = tested on: H-460; experiment: 3H-TdR (3H-thymidine) incorporation assay at 72 hr; type: cell-based, Human; details: Homo sapiens, 3H-TdR incorporation at 72 hr
[7] = tested on: MCF-7; experiment: 3H-TdR (3H-thymidine) incorporation assay at 72 hr; type: cell-based, Human; details: Homo sapiens, 3H-TdR incorporation at 72 hr
[8] = tested on: SF-268; experiment: 3H-TdR (3H-thymidine) incorporation assay at 72 hr; type: cell-based, Human; details: Homo sapiens, 3H-TdR incorporation at 72 hr
[9] = tested on: CCRF-CEM; experiment: 3H-TdR (3H-thymidine) incorporation assay at 72 hr; type: cell-based; details: Homo sapiens, CCRF-CEM, read-out: IC50 CCRF-CEM 24 h, 24 h drug exposure, wash, another 48 hr; 3H-TdR incorporation at 72 hr
Procedure: (§3) Table of IC50 Values (μM) for Controls
as §1, §2

[10] = tested on: CEM/dCK-; experiment: 3H-TdR (3H-thymidine) incorporation assay at 72 hr; type: cell-based; details: for IC50: deoxycytidine kinase-deficient CCRF-CEM; for Factor* (Resistance Factor = Ratio of dCK- on Wild-type CCRF-CEM): ratio of IC50 CEM/dCK- to CCRF-CEM, 24 h
Procedure: as §3, §1, §2

[11] = Homo sapiens, NCI-H460, read-out: IC50 in μM (3H-TdR incorporation at 72 hr) H-460 24 h, H-460 Human Lung Carcinoma, 72 hr assay
[12] = Homo sapiens, MCF7, read-out: IC50 in μM (3H-TdR incorporation at 72 hr) MCF-7 24 h, MCF-7 Human Breast Carcinoma, 72 hr assay
[13] = NCI-H460, read-out: IC50 H-460 (72 h), 72 h exposure
[14] = MCF7, read-out: IC50 MCF-7 (72 h), 72 h exposure
[15] = SF-268, read-out: IC50 SF-268 (72 h), 72 h exposure
[16] = Homo sapiens, CCRF-CEM, read-out: IC50 CEM/dCK- 24 h, 24 h drug exposure, wash, another 48 hr
[17] = NCI-H460, read-out: IC50 H-460 24 h, 24 h drug exposure, wash, another 48 hr
[18] = MCF7, read-out: IC50 MCF-7 24 h, 24 h drug exposure, wash, another 48 hr
[19] = SF-268, read-out: IC50 SF-268 24 h, 24 h drug exposure, wash, another 48 hr

Row | Structure (SMILES) | IC50 [1, 11] [µM] | IC50 [2, 12] [µM] | IC50 [3] [µM] | IC50 [4] [µM] | IC50 [9] [nM] | IC50 [10, 16] [nM] | further results
1 | CC(C)(C)C(=O)Oc1ccc(COC(=O)Nc2ccn([C@@H]3CO[C@H](COC(=O)OCc4ccc(OC(=O)C(C)(C)C)cc4)O3)c(=O)n2)cc1 [Compound 212, 2,2-Dimethylpropionic Acid 4-(1-{2-[4-(2,2-dimethylpropionyloxy)benzyloxy Carbonyloxymethyl]-[1,3]dioxolan-4-yl}-2-oxo-1,2-dihydropyrimidin-4-ylcarbamoyloxymethyl)-phenyl Ester] | 0.00011 | 0.00059 | 0.018 | 3.5 |  |  | 
2 | CC(C)(C)C(=O)Oc1ccc(COC(=O)Nc2ccn([C@@H]3CO[C@H](CO)O3)c(=O)n2)cc1 [Compound 213, 2,2-DIMETHYL-PROPIONIC ACID 4-[1-(2- HYDROXYMETHYL- [1,3]DIOXOLAN-4-YL)-2- OXO-1,2-DIHYDRO- PYRIMIDIN-4- YLCARBAMOYLOXYMETHYL]- PHENYL ESTER] | ≤ 0.0001 | 0.00027 | 0.012 | 1.1 |  |  | 
3 | CC(C)(C)OC(=O)N(CCCCCCNC(=O)OC[C@H]1OC[C@@H](n2ccc(N)nc2=O)O1)Cc1ccccc1 [Compound 214, {6-[4-(4-AMINO-2-OXO- 2H-PYRIMIDIN-1-YL)- [1,3]DIOXOLAN-2- YLMETHOXYCARBONYLAMINO]-HEXYL}-BENZYL-CARBAMIC ACID TERT-BUTYL ESTER] | 9.4 | 9.4 | 89 | > 100 |  |  | 
4 | Nc1ccn([C@@H]2CO[C@H](COC(=O)NCCCc3ccccc3)O2)c(=O)n1 [Compound 215, (3-PHENYL-PROPYL)- CARBAMIC ACID 4-(4- AMINO-2-OXO-2H- PYRIMIDIN-1-YL)- [1,3]DIOXOLAN-2-YL METHYL ESTER] | 3.9 | 33 | 96 | > 100 |  |  | 
5 | CCCCC(CC)(CC)C(=O)OC[C@H]1OC[C@@H](n2ccc(N)nc2=O)O1 [Compound 218, 2,2-DIETHYL-HEXANOIC ACID 4-(4-AMINO-2-OXO- 2H-PYRIMIDIN-1-YL)- [1,3]DIOXOLAN-2-YL METHYL ESTER] | 0.0091 | 0.052 | 0.081 | 60 |  |  | 
6 | CC(C)[C@H](N)C(=O)Nc1ccn([C@@H]2CO[C@H](CO)O2)c(=O)n1.O=C(O)C(F)(F)F [Compound 280, 2-Amino-N-[1-(2-hydoxymethyl-[1,3]dioxolan-4-yl)-2-oxo-1,2-dihydro-pyrimidin-4-yl]-3-methyl-butyramide; trifluoroacetic acid salt] |  |  |  |  | 1900 | > 100000 | IC50 [6, 17]: 1900 nM; IC50 [7, 18]: 3100 nM; IC50 [8, 19]: 18000 nM; Factor* (Resistance Factor = Ratio of dCK- on Wild-type CCRF-CEM) [10]: >53

Continued, in another order:

Row | IC50 [1, 11] [µM] | IC50 [2, 12] [µM] | IC50 [3] [µM] | IC50 [4] [µM] | IC50 [9] [nM] | IC50 [10, 16] [nM] | Structure (SMILES) | further results
7 | 13 | 15 |  | > 100 |  |  | O=C(Nc1ccn([C@@H]2CO[C@H](CO)O2)c(=O)n1)C1(c2ccccc2)CCCC1 [Compound 229, 1-PHENYL- CYCLOPENTANECARBOXYLIC ACID [1-(2- HYDROXYMETHYL- [1,3]DIOXOLAN-4-YL)-2- OXO-1,2-DIHYDRO- PYRIMIDIN-4-YL]-AMIDE] | IC50 ([1]; read-out: IC50 in μM (3H-TdR incorporation at 72 hr) H-460 24 h, H-460 Human Lung Carcinoma, 72 hr assay): 14 µM; IC50 ([2]; read-out: IC50 in μM (3H-TdR incorporation at 72 hr) MCF-7 24 h, MCF-7 Human Breast Carcinoma, 72 hr assay): 18 µM; IC50 [5]: 11 µM; Factor* (Resistance Factor = Ratio of dCK- on Wild-type CCRF-CEM) ([4]; ratio of IC50 CEM/dCK- to IC50 CCRF-CEM): >9
8 |  |  |  |  | 5.6 | 51600 | CC(C)C(=O)OC[C@H]1OC[C@@H](n2ccc(N)nc2=O)O1 [Compound 275, ISOBUTYRIC ACID 4-(4- AMINO-2-OXO-2H- PYRIMIDIN-1-YL)- [1,3]DIOXOLAN-2-YL METHYL ESTER] | IC50 [6, 13]: 1.2 nM; IC50 [7, 14]: 4.4 nM; IC50 [8, 15]: 13 nM; Factor* (Resistance Factor = Ratio of dCK- on Wild-type CCRF-CEM) [10]: 9,214
9 |  |  |  |  | 28 | 71200 | CC(C)CC(=O)OC[C@H]1OC[C@@H](n2ccc(N)nc2=O)O1 [Compound 278, 3-METHYL-BUTYRIC ACID 4-(4-AMINO-2-OXO-2H- PYRIMIDIN-1-YL)- [1,3]DIOXOLAN-2-YL METHYL ESTER] | IC50 [6, 17]: 79 nM; IC50 [6, 13]: 2.4 nM; IC50 [7, 18]: 38 nM; IC50 [7, 14]: 23 nM; IC50 [8, 19]: 93 nM; IC50 [8, 15]: 13 nM; IC50 ([10]; read-out: IC50 CEM/dCK- 24 h, 24 h drug exposure, wash, another 48 hr): 91000 nM
